Results on 1 compound are retold here after patent US11369609B2, “Small molecule Wnt inhibitor as treatment for dyslipidemia” (Yale University, priority 2019, dated 2022).

For experiment [1], the system named is kidney endothelial cells. Put plainly: Fatty acid oxidation (14CO2 release from [14C]palmitate) in isolated kidney endothelial cells. To be noted: diabetic CD-1 mice, Wnt inhibitor. It is filed as in vivo, mice. As to the method: Endothelial cells from the kidneys of non-diabetic and diabetic mice were isolated using a standardized kit (Miltenyl Biotech, USA) by following the manufacturer's instructions. Briefly, kidneys were isolated and minced into small pieces. Using a series of enzymatic reactions by treating the tissue with trypsin and Collagenase type I solution, a single cell suspension was created. The pellet was dissolved with CD31 magnetic beads and the CD31-labelled cells were separated on a magnetic separator. The cells were further purified on a column. Cell number was counted by hemocytometer and cells were plated on 0.1% gelatin coated Petri dishes.
Cultured isolated kidney endothelial cells were incubated with medium containing 0.75 mmol/L palmitate (conjugated to 2% free fatty acid-free BSA/[^14C] palmitate at 2 μCi/mL) for 2 h. One mL of the culture medium was transferred to a sealable tube, the cap of which housed a Whatman filter paper disc. ^14CO2 trapped in the media was then released by acidification of media using 60% perchloric acid. Radioactivity that had become adsorbed onto the filter discs was then quantified by liquid scintillation counting.
It is increasingly recognized that defects in central metabolism contribute to kidney fibrosis (69, 76). Defective FA metabolism in EC leads to EndMT events (77). To investigate whether FA metabolism was deranged in the model, radiolabeled [^14C]palmitate uptake experiments were performed in isolated EC from mouse kidneys. FA uptake was higher in isolated EC from the diabetic kidneys of the more fibrotic strain (diabetic CD-1) when compared to kidney EC from the less-fibrotic strain (diabetic C57BL/6). […] FA oxidation (FAO) was also assessed by measuring the ^14CO2 release from radiolabeled [^14C]palmitate in cultured EC isolated from kidneys. […] In the next set of experiments, diabetic CD-1 mice were treated with the FA synthase inhibitor C75, the FAO inhibitor etomoxir, the PPARα agonist fenofibrate, and the cholesterol-lowering drug simvastatin for 4 weeks. […] (FIG. 23A). Fenofibrate and C75 restored the level of GR protein in CD31 positive cells, whereas etomoxir and simvastatin suppressed it (FIG. 23B).

In experiment [2] the test system is canonical Wnt signaling. Put plainly: Renal fibrosis in unilateral ureteral obstruction (UUO) mice treated with Wnt inhibitor. It is filed as in vivo. As to the method:
UUO surgery procedure was performed as previously described (44). Briefly, mice were anesthetized with isoflurane (3%-5% for induction and 1%-3% for maintenance). Mice were shaved on the left side of the abdomen, a vertical incision was made through the skin with a scalpel, and the skin was retracted. A second incision was made through the peritoneum to expose the kidney. The left ureter was ligated twice 15 mm below the renal pelvis with surgical silk, and the ureter was then severed between the 2 ligatures. Then, the ligated kidney was placed gently back into its correct anatomical position, and sterile saline was added to replenish loss of fluid. The incisions were sutured and mice were individually caged. Buprenorphine was used as an analgesic. The first dose was administered 30 minutes before surgery and then every 12 h for 72 h, at a dose of 0.05 mg/kg subcutaneously. Mice were sacrificed and kidney and blood samples were harvested after perfusion with PBS at 10 days after UUO. Contralateral kidneys were used as a nonfibrotic control for all experiments using this model.
A point-counting method was utilized to evaluate the relative area of the mesangial matrix. PAS-stained glomeruli from each mouse were analyzed using a digital microscope screen grid containing 540 (27×20) points. Masson's trichrome-stained images were evaluated by ImageJ software, and the fibrotic areas were estimated.
Deparaffinized sections were incubated with picrosirius red solution for 1 hour at room temperature. The slides were washed twice with acetic acid solution for 30 seconds per wash. The slides were then dehydrated in absolute alcohol three times, cleared in xylene, and mounted with a synthetic resin. Sirius red staining was analyzed using ImageJ software, and fibrotic areas were quantified.
Paraffin-embedded kidney sections (5 μm thick) were deparaffinized and rehydrated (2 min in xylene, four times; 1 min in 100% ethanol, twice; 1 min in 95% ethanol; 45 s in 70% ethanol; and 1 min in distilled water), and the antigen was retrieved in a 10 mM citrate buffer pH 6 at 98° C. for 60 min. To block the endogenous peroxidase, all sections were incubated in 0.3% hydrogen peroxide for 10 min. The immunohistochemistry was performed using a Vectastain ABC Kit (Vector Laboratories, Burlingame, Calif.). Mouse anti-[…] antibody (1:100) and CPT1a (Abnova; H00001374-DO1P; 1:100) antibody was used. In the negative controls, the primary antibody was omitted and replaced with the blocking solution.
Frozen kidney sections (5 μm) were used for immunofluorescence; double positive labeling with CD31/αSMA, CD31/TGFβR1 and E-cadherin/αSMA was measured. Briefly, frozen sections were dried and placed in acetone for 10 min at −30° C. Once the sections were dried, they were washed twice in phosphate-buffered saline (PBS) for 5 min and then blocked in 2% bovine serum albumin/PBS for 30 min at room temperature. Thereafter, the sections were incubated in primary antibody (1:100) for 1 hour and washed in PBS (5 min) three times. Next, the sections were incubated with the secondary antibodies for 30 min, washed with PBS three times (5 min each), and mounted with mounting medium with DAPI (Vector Laboratories, Burlingame, Calif.). The immune-labeled sections were analyzed by fluorescence microscopy. For each mouse, original magnification of ×400 pictures were obtained from six different areas, and quantification was performed.
To determine whether inhibition of the Wnt signaling pathway could ameliorate the observed fibrosis, LGK974, a small molecule inhibitor of all secreted Wnts (43), was utilized. FIGS. 21A-21B depict the schematic diagram showing the experimental protocol for LGK974 treatment in diabetic CD-1 and UUO mice.

As to `Cc1cc(-c2ncc(CC(=O)Nc3ccc(-c4cnccn4)cn3)cc2C)ccn1` [LGK974], the “level of FAO in isolated kidney EC” value in experiment [1] is “able to restore the level of FAO”. Besides, in experiment [2] (LGK974 5 mg/kg), the ECM deposition entry is “greatly diminished”, the collagen accumulation result is given as “greatly diminished”, the glomerulosclerosis result was “greatly diminished” and the relative area fibrosis entry was “greatly diminished”. The “endothelial GR level” value in experiment [2] (kidney CD31-positive cells) is given as “significantly restored”. Further, the “level of β-catenin” value in experiment [2] (kidney immunohistochemistry) is given as “suppressed”.
